Patent US11576987B2, “Compositions and methods of treating melanoma” (UNIVERSITY OF IOWA RESEARCH FOUNDATION, priority 2016, dated 2023)
Where a name gives a salt, the structure may show the parent alone.

Assays:
[1] = tested on: MCR1 expression; assay: Pharmacological enhancement of MCR1 expression in human melanoma cells by drug incubation; format: cell-based; conditions: human melanoma cells, incubation with drug
Excerpt: Melanoma if detected early can be cured by surgery, but metastatic melanoma is lethal. New therapies (e.g., immunotherapy; BRAF inhibition, BRAFi) and combinations extend life, but low response rates, acquired drug resistance, and serious side effects are major challenges to improving outcomes for disseminated disease (5 y survival 17%). Peptide-based radionuclide therapy targeted to the melanocortin-receptor type 1 (MCR1-RT) has long been considered a promising alternative; and MCR1-RT has achieved complete responses in mouse models (B16). However, MCR1 expression is heterogeneous/low in human melanoma, and as a result, no previous MCR1-RT study has employed successfully human melanoma cell xenografts. […] This introduces innovative Pb-specific chelator combined with a “click-cyclized” peptide (PSC-C-MCR1) to improve tumor:kidney ratio of radionuclide uptake 7-fold. An effective therapy for metastatic melanoma is developed that combines MCR1-RT with pharmacological agents (PBA; BRAFi/MEKi; HDACi) that enhance MCR1 expression.
Melanoma is the fastest growing cancer incidence in the United States. Surgery combined with radiation can be curative at early stages. However, metastatic melanoma is almost uniformly fatal (5-yr survival 17%). Recent breakthrough targeted MAPKi therapies (e.g., BRAFi) and immunotherapies (e.g., PD-1 inhibitors) have improved outcomes, but low response rates, acquired drug resistance, and adverse side effects limit quality of life for metastatic melanoma patients. For example, approval of immune-checkpoint inhibitor ipilimumab was based on an improvement in overall survival of only 3.7 months (overall response <15%). Combination immunotherapies have improved response (up to 61%), but grade 3/4 adverse events (up to 55%) often lead to therapy discontinuation (up to 36%). For targeted therapies, BRAF inhibitor vemurafenib was approved based on overall survival at 6 months of 84% vs 64% in the control arm (dacarbazine). Combining BRAFi with MEK inhibitors (MEKi) has led to modest improvements, yet recurrence is virtually inevitable. The mechanisms of acquired drug resistance are complex, and include altered/alternative oncogenic pathways; tumor heterogeneity; and enhanced DNA repair. Melanocortin-receptor type 1 targeted radionuclide therapy (MCR1-RT) has long been considered a promising alternative treatment for melanoma; and MCR1-targeted α-particle therapy (^212Pb) has achieved complete responses in mice bearing mouse (B16) tumors that highly express MCR1. However, these studies have been confined primarily to mouse melanoma (B16) cells because MCR1 expression is heterogeneous/low in human melanoma.
Combination therapies for metastatic melanoma are emerging as common practice (e.g., BRAFi plus MEK; and combination immunotherapies), but melanoma almost invariably develops resistance. MCR1-RT has long been considered a promising alternative, but previous therapy studies have been limited to the use of B16 mouse melanoma cells that highly express the MCR1 protein, because native MCR1 expression in human melanoma is heterogeneous/low.

[2] = biological target: T1, MCR1 (Homo sapiens, UniProt Q01726); assay: Radiobinding assay with [125I]-NDP-a-MSH after drug incubation; format: cell-based; conditions: SK-MEL3 and A2058 BRAF^V600E, 4 hours incubation, relative to untreated controls
T1 construct: endogenous in cells; host or cells: SK-MEL3 BRAF V600E and A2058 BRAF V600E human melanoma cells
Protocol: FIGS. 11A-11D. MCR1 expression can be enhanced in human melanoma cells by incubation with PBA and FDA approved melanoma drugs. (A-B) Flow cytometry analysis of MC1R expression in human melanoma cells: (A) SK-MEL3 BRAF^V600E; (B) A2058 BRAF^V600E; incubated for 4 hours with clinically-relevant concentrations of BRAFi: PLX4032 (10 μM), GSK2118436 (2 μM); MEKi: GDC0973 (2 μM), GSK1120212 (2 μM); 4-PBA (4 mM). Cells were stained with anti-MC1R-phycoerythrin (PE) monoclonal antibody conjugate. Fluorescence intensity was corrected by PE-conjugated isotype. Data were expressed as normalized mean fluorescence intensity (NMFI; n=4±SD; *p<0.05). […] (C) SK-MEL3 BRAF^V600E; and (D) A2058 BRAF^V600E was confirmed by radiobinding assay using MCR1-specific peptide [^125I]-NDP-a-MSH following incubation for 4 hours with PBA and FDA approved drugs (as in FIG. 10). […] Binding expressed as radioactivity bound relative to untreated controls (same cells) (n=4±SD; *p<0.05).
PCR measurements give information on the cellular response to drug treatments, but competitive binding assays convey a specific measure of changes in receptor expression (protein level) and changes in ligand-binding interactions as a result of drug treatments (FIGS. 11A-11B). After drug treatments, receptor expression is determined using synthetic α-MSH analog [^125I]-Nle^4-D-Phe^7-alpha-MSH ([^125I]-NDP-MSH) routinely as in FIG. 16D. […]

[3] = cited from earlier work
[4] = tested on: metastatic melanoma; conditions: cited from earlier work

O=C(O)CCCc1ccccc1 [PBA, 4-phenylbutyric acid, sodium salt]
enhancement of MCR1 expression [1]: up to 8 fold | binding of MCR1-specific peptide [125I]-NDP-a-MSH [2]: increases binding of MCR1-specific peptides | solubility in acetone and diethyl ether [3]: practically insoluble | solubility in methanol [3]: freely soluble | solubility in water [3]: soluble in water | tolerated dose in patients [4]: up to 27 g/day
